Data from patent publication US20170349532A1, “CATIONIC LIPID” (Kyowa Hakko Kirin Co., Ltd., priority 2011, published 2017).

assay: Average particle diameter of preparation (Zetasizer Nano ZS); format: physicochemical; conditions: Comparative Examples 1 to 8, prepared as Example 118 with apo-b siRNA
Method in brief: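 Lipid nanoparticles formed by mixing cationic lipid/PEG-DMPE Na/DSPC/cholesterol (8.947/1.059/5.708/13.697 mmol/L in 90% ethanol, 37 °C) with apo-b siRNA in Tris-EDTA/citrate buffer pH 5.0, then diluted with citrate/NaCl pH 6.0 and DPBS to 10 μM siRNA. Mean complex diameter measured by dynamic light scattering.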

Structure (SMILES) | average particle diameter of the complex between the cationic lipis and the nucleic acid in the preparation
CCCCCCCC/C=C\CCCCCCCC(=O)OCC(C[N+](C)(C)C)OC(=O)CCCCCCC/C=C\CCCCCCCC.[Cl-] (stereo not shown) [Compound A-1, N(2,3-di-(9-(Z)-octadecenoyloxy))-prop-1-yl-N,N,N-trimethylammonium chloride, reference compound] | 104.0 nm
CCCCC/C=C\C/C=C\CCCCCCCC(=O)O[C@@H]1CN(C)C[C@H]1OC(=O)CCCCCCC/C=C\C/C=C\CCCCC [Compound A-3, (3R,4R)-1-Methylpyrrolidine-3,4-diyl di((9Z,12Z)-octadec-9,12-dienoate), reference compound] | 141.0 nm
CCCCC/C=C\C/C=C\CCCCCCCC(=O)OCCN(C)CCOC(=O)CCCCCCC/C=C\C/C=C\CCCCC [Compound A-5, N-Methyl-N,N-bis(2-((9Z,12Z)-1-oxooctadec-9,12-dienyloxy)ethyl)amine, reference compound] | 136.4 nm
CCCCCCCC/C=C\CCCCCCCCO[C@@H]1CN(Cc2ccccc2)C[C@H]1OCCCCCCCC/C=C\CCCCCCCC [Compound VI-4, (3R,4R)-1-Benzyl-3,4-bis((Z)-octadec-9-enyloxy)pyrrolidine, reference compound] | 157.8 nm

Other lines, results leading:

average particle diameter of the complex between the cationic lipis and the nucleic acid in the preparation | Structure (SMILES)
131.1 nm | CCCCCCCC/C=C\CCCCCCCC(=O)O[C@@H]1CN(C)C[C@H]1OC(=O)CCCCCCC/C=C\CCCCCCCC [Compound A-4, (3R,4R)-1-Methylpyrrolidine-3,4-diyl di((Z)-octadec-9-enoate), reference compound]
139.5 nm | CCCCCCCC/C=C\CCCCCCCC(=O)OCCN(C)CCOC(=O)CCCCCCC/C=C\CCCCCCCC [Compound A-6, N-Methyl-N,N-bis(2-((Z)-1-oxooctadec-9-enyloxy)ethyl)amine, reference compound]

same assay, conditions: average particle diameter of cationic lipid/nucleic acid complex; Example 118 preparation: compound/PEG-DMPE Na/DSPC/cholesterol with apo-b siRNA

Structure (SMILES) | Particle diameter of Preparetion
CCCCCCCC/C=C\CCCCCCCCOCCN(CCOCCCCCCCC/C=C\CCCCCCCC)CCC(=O)N(C)C [Compound 85, 3-(bis(2-((2)-Octadec-9-enyloxy)ethyl)amino)-N,N-dimethylpropanamide] | 120.1 nm
CCCCCCCC/C=C\CCCCCCCCOCCN(CCOCCCCCCCC/C=C\CCCCCCCC)C(=O)CN [Compound 86, 2-Amino-N,N-bis(2-((Z)-octadec-9-enyloxy)ethyl)acetamide] | 128.4 nm
CCCCCCCC/C=C\CCCCCCCCOCCN(CCOCCCCCCCC/C=C\CCCCCCCC)C(=O)[C@@H](N)CCCN [Compound 93, (S)-2,5-Diamino-N,N-bis(2-((Z)-octadec-9-enyloxy)ethyl)pentanamido] | 135.1 nm
CCCCC/C=C\C/C=C\CCCCCCCC(=O)OCCN(CCOC(=O)CCCCCCC/C=C\C/C=C\CCCCC)C(=O)CN [Compound 96, 2-Amino-N,N-bis(2-((9Z,12Z)-octadec-9,12-dienoyloxy)ethyl)acetamide] | 133.2 nm
CCCCCCCC/C=C\CCCCCCCC(=O)OCCN(CCOC(=O)CCCCCCC/C=C\CCCCCCCC)C(=O)CN(C)C [Compound 98, 2-(Dimethylamino)-N,N-bis(2-((Z)-octadec-9-enoyloxy)ethyl)acetamide] | 124.1 nm
CCCCCCCC/C=C\CCCCCCCC(=O)OCCN(CCOC(=O)CCCCCCC/C=C\CCCCCCCC)C(=O)CCN(C)C [Compound 99, 3-(Dimethylamino)-N,N-bis(2-((Z)-octadec-9-enoyloxy)ethyl)propanamido] | 129.6 nm
CCCCC/C=C\C/C=C\CCCCCCCC(=O)OCCN(CCOC(=O)CCCCCCC/C=C\C/C=C\CCCCC)C(=O)OCCCN(C)C [Compound 117, 3-(Dimethylamino)propyl bis(2-((9Z,12Z)-1-oxooctadec-9,12-dienyloxy)ethyl)carbamate] | 155.9 nm

Now from value to molecule:

Particle diameter of Preparetion | Structure (SMILES)
136.3 nm | CCCCCCCC/C=C\CCCCCCCCOCCN(CCOCCCCCCCC/C=C\CCCCCCCC)C(=O)CCN [Compound 87, 3-Amino-N,N-bis(2-((Z)-octadec-9-enyloxy)ethyl)propanamido]
131.9 nm | CCCCCCCC/C=C\CCCCCCCCOCCN(CCOCCCCCCCC/C=C\CCCCCCCC)C(=O)CCCCCN [Compound 88, 6-Amino-N,N-bis(2-((Z)-octadec-9-enyloxy)ethyl)]
121.5 nm | CCCCCCCC/C=C\CCCCCCCCOCCN(CCOCCCCCCCC/C=C\CCCCCCCC)C(=O)CN(C)C [Compound 89, 2-(Dimethylamino)-N,N-bis(2-((Z)-octadec-9-enyloxy)ethyl)acetamide]
120.8 nm | CCCCCCCC/C=C\CCCCCCCCOCCN(CCOCCCCCCCC/C=C\CCCCCCCC)C(=O)CCN(C)C [Compound 90, 3-(Dimethylamino)-N,N-bis(2-((Z)-octadec-9-enyloxy)ethyl)propanamido]
125.4 nm | CCCCCCCC/C=C\CCCCCCCCOCCN(CCOCCCCCCCC/C=C\CCCCCCCC)C(=O)[C@@H](N)CO [Compound 91, (S)-2-Amino-3-hydroxy-N,N-bis(2-((Z)-octadec-9-enyloxy)ethyl)propanamido]
143.9 nm | CCCCCCCC/C=C\CCCCCCCCOCCN(CCOCCCCCCCC/C=C\CCCCCCCC)C(=O)[C@@H](N)CN [Compound 92, (S)-2,3-Diamino-N,N-bis(2-((Z)-octadec-9-enyloxy)ethyl)propanamido]
137.3 nm | CCCCCCCC/C=C\CCCCCCCCOCCN(CCOCCCCCCCC/C=C\CCCCCCCC)C(=O)[C@@H](N)CCCCN [Compound 94, (S)-2,6-Diamino-N,N-bis(2-((Z)-octadec-9-enyloxy)ethyl)hexanamido]
128.3 nm | CCCCCCCC/C=C\CCCCCCCC(=O)OCCN(CCOC(=O)CCCCCCC/C=C\CCCCCCCC)C(=O)CN [Compound 95, 2-Amino-N,N-bis(2-((Z)-octadec-9-enoyloxy)ethyl)acetamide]
133.0 nm | CCCCCCCC/C=C\CCCCCCCC(=O)OCCN(CCOC(=O)CCCCCCC/C=C\CCCCCCCC)C(=O)[C@@H](N)CCCCN [Compound 97, (S)-2,6-Diamino-N,N-bis(2-((Z)-octadec-9-enoyloxy)ethyl)hexanamido]
135.1 nm | CCCCC/C=C\C/C=C\CCCCCCCC(=O)OCCN(CCOC(=O)CCCCCCC/C=C\C/C=C\CCCCC)C(=O)[C@@H](N)CCCCN [Compound 100, (S)-2,6-Diamino-N,N-bis(2-((9Z,12Z)-octadec-9,12-dienoyloxy)ethyl)hexanamido]
152.8 nm | CCCCC/C=C\C/C=C\CCCCCCCCCCOC[C@@H]1CN(C(=O)[C@@H](N)CCCCN)C[C@H]1COCCCCCCCCCC/C=C\C/C=C\CCCCC [Compound 115, trans-1-((S)-2,6-Diaminohexanoyl)-3,4-bis(((11Z,14Z)-icos-11,14-dienyloxy)methyl)pyrrolidine]
154.1 nm | CCCCCCCC/C=C\CCCCCCCC(=O)OCCN(CCOC(=O)CCCCCCC/C=C\CCCCCCCC)C(=O)OCCCN(C)C [Compound 116, 3-(Dimethylamino)propyl bis(2-((Z)-1-oxooctadec-9-enyloxy)ethyl)carbamate]
